The nature of data set [1]: Parallel artificial membrane permeability assay (PAMPA), BBB passive diffusion. Type of data set: in vitro ADME. Conditions: pH 7.4, 4 hours; for % R (compound retention of the phospholipid membrane), PAMPA / % T (percentage of transport), PAMPA: 200 μM; for Papp at 4 h, 200 μM: pig, PAMPA, room temperature, read-out: Effective permeability Pe. How it is done:
Parallel artificial membrane permeability assay (PAMPA) described in Kansy M et al., J. Med. Chem. 1998; 41(7):1007-10 was used to determine the capacity of compounds to cross the Blood-Brain Barrier (BBB) by passive diffusion (Di L et al., Eur. J. Med. Chem. 2003; 38(3):223-32). The effective permeability (Pe) of the compounds was measured at an initial concentration of 200 μM. The buffer solution was prepared from a commercial concentrated one following the manufacturer's instructions. pH was adjusted to 7.4 using a 0.5 M NaOH solution. A stock solution of new compound was prepared in DMSO and diluted with buffer solution to a final 200 μM concentration (0.5% DMSO content). The PAMPA sandwich was separated and each donor well was filled with 200 μL of the compound solution. The acceptor plate was placed into the donor plate, ensuring that the underside of the membrane was in contact with buffer. 4 μL of the mixture of phospholipids (20 mg/mL) in dodecane was added to the filter of each well, and 200 μL of buffer solution was added to the each acceptor well. The plate was covered and incubated at room temperature in a saturated humidity atmosphere for 4 hours under orbital agitation at 100 rpm. After 4 hours, the contents of the acceptor and donor compartments were analyzed by HPLC: 150 μL of each well from the donor plate and 150 μL of each well from the acceptor plate were transferred to HPLC vials, injecting each sample into a reverse-phase C18 column (150 mm×4.6 mm×5 μm, 100 Å) (100 μL/injection from the acceptor wells, 10 μL/injection from the donor wells and for t0 references). Transport was also confirmed by MALDI-TOF spectrometry.
The phospholipid mixture used was a porcine polar brain lipid extract, provided by Avanti polar lipids, with the following composition: 12.6% phosphatidylcholine (PC), 33.1% phosphatidylethanolamine (PE), 18.5% phosphatidylserine (PS), 4.1% phosphatidylinositol (PI), 0.8% phosphatidic acid and 30.9% of other compounds.
The effective permeability (Pe) after 4 hours was calculated using equation 2, the percentage of transport (T %) was calculated using equation 3 and the compound retention (R %) of the phospholipid membrane using equation 4:
[formula] [formula] [formula] wherein: • t is time (h) • CA(t) is the compound concentration in the acceptor well at time t, CD(t) is the compound concentration in donor well at time t • and CD(t0) is the compound concentration in the donor well at t0.

Data set [2] can be described thus: Microsomal stability (rat). Type of data set: in vitro ADME. Conditions: Sprague-Dawley, pooled liver microsomes, pH 7.4; rat liver microsomes 0.5 mg/mL, 1 μM compound, 37° C., NADPH regenerating system. How it is done:
The stability of the compounds in rat (Sprague-Dawley) pooled liver microsomes (catalog number 452501) was investigated according to the instructions provided by the vendor (BD Bioscience). A stock solution (500 μM) of the compound to be tested was prepared in DMSO. Two μL of the compounds were incubated at 1 μM final concentration in a mixture of: • 713 μL of H2O • 200 μL of 0.5 M potassium phosphate (pH 7.4) • 50 μL of NADPH regenerating system solution A (BD Bioscience, catalog number 451220) • 10 μL of NADPH regenerating system solution B (BD Bioscience, catalog number 451200)
The resulting mixture was warmed to 37° C. for 5 min. After which, 25 μL of liver microsomes were added at a final concentration of 0.5 mg/mL. The mixture was incubated at 37° C. with orbital agitation (100 rpm). At selected time points, 100 μL aliquots were extracted and mixed with 100 μL of acetonitrile. The obtained precipitate was shake in a vortex for 1 minute. Samples were kept at 4° C. for 30 min, after which, samples were centrifuged at 20,000×g at 4° C. for 30 min. The supernatant was filtered out and subsequently analysed by UPLC-MS. All stability tests were performed in duplicates.

A short description of data set [3]: PK in mice after intravenous bolus. The note with it: male, Swiss Albino, mouse, plasma, 1 mg/kg intravenous bolus; for Vd: read-out: Vss. Format: in vivo. How it is done:
The pharmacokinetics of the compounds following intravenous bolus administration was conducted in male Swiss Albino mice. The study was conducted in accordance with the guidelines of the Institutional Animal Ethics Committee (IAEC) and in accordance with the requirements of Committee for the Purpose of Control and Supervision of Experiments on Animals (CPCSEA), India.
Study was conducted in 12 mice per compound using sparse sampling design (n=3/time point) to produce composite profile. The compounds were dissolved in 2% Twee80® in saline (0.9 NaCl) at a concentration of 0.5 mg/mL. Mice were administered a single dose of 1 mg/kg of the compound solution by intravenous bolus through lateral tail vein using 1 mL BD syringe guided with 26G needle at a dose volume of 2 mL/kg.
Blood samples were collected (n=3 per time point) at 0.083, 0.25, 0.5, 1, 2, 4, 6, 8, 24 and 48 h post-dose. At each time point, 120 μL of blood was collected by retro orbital plexus puncture and transferred into a labeled microfuge tube containing 200 mM K2EDTA solution (20 μL per mL of blood). The blood samples were centrifuged at 5000×g for 5 min at 4±2° C. Plasma samples were stored below −60° C. until bioanalysis.
Plasma samples were analyzed using a LC-MS/MS method with LLOQ of 1.06 ng/mL. Pharmacokinetic parameters in plasma were calculated using the non-compartmental analysis tool of the validated Phoenix WinNonlin® software (version 6.3). The area under the concentration time curve (AUClast) was calculated by linear trapezoidal rule. Peak plasma concentration (Cmax) and time to reach the peak plasma concentration (Tmax) were the observed values. Clearance (CL) and volume of distribution (Vss) were predicted values.

Another data set concerns MK-801-treated mice. Briefly: Novel object recognition (NOR) task, MK-801-induced cognitive deficit. Type of data set: in vivo, male C57/Bl6 mice. The note with it: for % discrimination index: mean ± s.e.m.
Where [4] appears, read: compound 5 mg/kg intraperitoneal 35 min before test + MK 801 0.2 mg/kg sc.
The mark [5] stands for this setting: compound 5 mg/kg oral (po) 35 min before test + MK 801 0.2 mg/kg sc.

With `COc1cc(C(=O)N2CC(F)(F)C[C@H]2C(=O)N2CCC[C@H]2C#N)cc(OC)c1OCc1ccccc1` [Comp Ex. 3, (S)-1-((2S)-1-(4-(benzyloxy)-3,5-dimethoxybenzoyl)-4,4-difluoropyrrolidine-2-carbonyl)pyrrolidine-2-carbonitrile], in data set [1], the “% R (compound retention of the phospholipid membrane), PAMPA” value is 10.93%; the “% T (percentage of transport), PAMPA” value worked out at 29.92%; the Papp at 4 h, 200 μM worked out at 22.1 ×10⁻⁶ cm/s. In addition, the half-life at 1 μM in data set [2] is less than 5 min. Further, in data set [3], the AUC(0-t) came to 131 ng·h/mL, the clearance came out at 126 mL/min/kg and the Vd turned out to be 0.64 L/kg. In addition, the “% discrimination index” value with MK-801-treated mice (setting [4]) is 42.7 ± 3.3 %. Besides, in the data set on MK-801-treated mice (setting [5]), the “% discrimination index” value stood at 20.1 ± 2.9%. Further, the “Efficacy after oral administration (in words)” value in the data set with MK-801-treated mice (oral administration) is “no efficacy”.
As for `N#C[C@@H]1CCCN1C(=O)[C@@H]1CC(F)(F)CN1C(=O)c1ccc(OCc2ccccc2)c(F)c1` [Comp Ex. 4, (S)-1-((S)-1-(4-(benzyloxy)-3-fluorobenzoyl)-4,4-difluoropyrrolidine-2-carbonyl) pyrrolidine-2-carbonitrile], the “% T (percentage of transport), PAMPA” value in data set [1] is 10.43%. Further, the half-life at 1 μM in data set [2] was less than 5 min. Also, in data set [3], the AUC(0-t) was 22.7 ng·h/mL, the clearance stood at 697 mL/min/kg and the Vd turned out to be 9.06 L/kg.
Regarding `N#C[C@@H]1CCCN1C(=O)[C@@H]1C[C@@H](F)CN1C(=O)c1cc(F)c(OCc2ccccc2)c(F)c1` [Example 1, (S)-1-((2S,4R)-1-(4-(benzyloxy)-3,5-difluorobenzoyl)-4-fluoropyrrolidine-2-carbonyl)pyrrolidine-2-carbonitrile], in data set [1], the “% R (compound retention of the phospholipid membrane), PAMPA” value turned out to be 24%; the “% T (percentage of transport), PAMPA” value turned out to be 18.1%; the Papp at 4 h, 200 μM came out at 4.7 ×10⁻⁶ cm/s. In addition, the half-life at 1 μM in data set [2] is 12 min. Moreover, in data set [3], the AUC(0-t) amounted to 127 ng·h/mL, the clearance was determined as 99.6 mL/min/kg and the Vd was determined as 1.19 L/kg. Further, in the data set on MK-801-treated mice (setting [4]), the “% discrimination index” value is 30.3 ± 3.9%. The “% discrimination index” value with MK-801-treated mice (setting [5]) is given as 42.1 ± 5.1 %.

The values are drawn from patent publication US12459891B2, “1-[1-(4-benzyloxy-3,5-difluoro-benzoyl)-4-fluoro-pyrrolidine-2-carbonyl]-pyrrolidine-2-carbonitrile” (ACCURE THERAPEUTICS, S.L., priority 2020, dated 2025).
